Results on ten molecules are retold here after US9550796B2, “Pyrrolopyrrolone derivatives and their use as BET inhibitors” (NOVARTIS AG, priority 2013, dated 2017).

Where only a bound is given, the exact number is not on record here.

Experiment [1] concerns the target BRD4 (Homo sapiens (Human), UniProt O60885). The experiment can be described thus: TR-FRET in-vitro binding assay for BRD4. The following applies: 45 nM His-Brd4(44-477), acetyl-histone H4 (AcK 5, 8, 12, 16) peptide. The method in brief: (§1)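 TR-FRET binding read after 35 min incubation at 30° C. Compounds dispensed from 90% DMSO solutions and tested at 8 concentrations in a 13.55 μL total reaction volume.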
In general terms: In TR-FRET formats the signal depends on donor and acceptor labels being close together.

In experiment [2] the target is BRD2 (Homo sapiens (Human), UniProt P25440). The experiment in a line: TR-FRET in-vitro binding assay for BRD2. Conditions: 45 nM His-Brd2(60-472), acetyl-histone H4 (AcK 5, 8, 12, 16) peptide. How it is done: TR-FRET In-Vitro Binding Assays for BRD2, BRD3, and BRD4: All assays were performed in 384-well microtiter plates. […] Liquid handling and incubation steps were done on an Innovadyne Nanodrop Express equipped with a robotic arm (Thermo CatX, Perkin Elmer/Caliper Twister II) and an incubator (Liconic STX40, Thermo Cytomat 2C450). The assay plates were prepared by addition of 50 nl per well of compound solution in 90% DMSO HummingBird nanodispenser (Zinsser Analytic). […] Reactions were incubated at 30° C. for 35 minutes. […] After 35 minutes incubation at 30° C., plates were measured in a Perkin Elmer EnVision multilabel reader. […] The stock solutions were stored at […] if not used immediately. For the test procedure the vials were defrosted and identified by a scanner whereby a working sheet was generated that guided the subsequent working steps. Compound dilutions were made in 96 well plates. This format enabled the assay of maximally […] at 8 concentrations (single points) including 4 reference compounds, if desired (known BET inhibitors from the prior art, for this and other assays of the type disclosed herein). The dilution protocol included the production of “pre-dilution plates”, “master plates” and “assay plates”. Polypropylene 96-well plates were used as pre-dilution plates. […] All dilution steps were done on a HamiltonSTAR robot. […] Identical “assay plates” were then prepared by pipetting 50 nL each of compound dilutions of the “master plates” into 384-well “assay plates” by means of a HummingBird 384-channel dispenser. These plates were used directly for the assay which was performed in a total volume of 13.55 μL.
Sequence of BRD2 (P25440 60-472): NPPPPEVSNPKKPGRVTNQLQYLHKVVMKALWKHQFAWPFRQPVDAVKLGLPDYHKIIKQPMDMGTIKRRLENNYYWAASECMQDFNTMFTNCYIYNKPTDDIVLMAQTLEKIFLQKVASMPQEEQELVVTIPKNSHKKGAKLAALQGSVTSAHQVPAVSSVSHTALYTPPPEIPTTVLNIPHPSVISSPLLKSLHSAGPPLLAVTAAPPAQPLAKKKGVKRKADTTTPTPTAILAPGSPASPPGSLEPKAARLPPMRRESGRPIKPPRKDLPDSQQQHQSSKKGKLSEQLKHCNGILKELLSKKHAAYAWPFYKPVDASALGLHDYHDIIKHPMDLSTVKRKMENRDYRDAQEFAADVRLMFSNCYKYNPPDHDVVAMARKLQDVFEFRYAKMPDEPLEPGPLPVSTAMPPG

Experiment [3] has as its target BRD3 (Homo sapiens (Human), UniProt Q15059). The experiment in a line: TR-FRET in-vitro binding assay for BRD3. The following applies: 45 nM His-Brd3(20-477), acetyl-histone H4 (AcK 5, 8, 12, 16) peptide. The method in brief:
as §1

Experiment [4] addresses CREBBP (Homo sapiens (Human), UniProt Q92793). The experiment can be described thus: AlphaScreen in-vitro binding assay for CREBBP. Conditions: 324 nM His-CREBBP (1081-1197), acetyl-histone H4 (AcK 5, 8, 12) peptide. The method in brief: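 IC50 values were derived by non-linear regression of percent inhibition across 8 compound concentrations. Protein was His-tagged CREBBP bromodomain (1081-1197), peptide acetyl-histone H4 (AcK 5, 8, 12), in HEPES pH 7.5 buffer. Read-out was AlphaScreen with Ni-chelate acceptor and streptavidin donor beads, 35 min at 30° C then 60 min at RT.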

In experiment [5] the test system is MV-4-11. The experiment in a line: Cell growth inhibition assay (CellTiter-Glo), MV-4-11. Format: cell-based, human. Conditions: MV-4-11 cells, 4 days; for GI50: Homo sapiens, MV4-11, 96 h, half-maximal growth inhibition; for MV-4-11 TGI: total growth inhibition. The method in brief:
(§2)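 Seed cells in their own media; add compound as 3-fold dilutions from 10 μM (0.1% DMSO final). Incubate 4 days at 37 °C, 5% CO2, then add CTG and read luminescence. Subtract no-cell background, correct to a day 0 plate, and fit IC50 and TGI.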
(In general: ATP-based viability assays read luminescence as a measure of living cells.)

In experiment [6] the test system is THP-1. The experiment in a line: Cell growth inhibition assay (CellTiter-Glo), THP-1. The following applies: THP-1 cells, 4 days; for GI50: Homo sapiens, 96 h, half-maximal growth inhibition; for THP-1 TGI: total growth inhibition. It counts as cell-based, human. In outline: as §2
For experiment [7], the system named is K-562. The experiment in a line: Cell growth inhibition assay (CellTiter-Glo), K-562. It counts as cell-based, human. Conditions: K-562 cells, 4 days; for GI50: Homo sapiens, K562, 96 h, half-maximal growth inhibition; for K-562 TGI: total growth inhibition. In outline: as §2

Sequence of CREBBP (Q92793 1081-1197): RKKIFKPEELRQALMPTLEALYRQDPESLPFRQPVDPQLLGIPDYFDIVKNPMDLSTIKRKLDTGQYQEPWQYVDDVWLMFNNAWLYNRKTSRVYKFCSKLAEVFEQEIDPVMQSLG
Sequence of BRD3 (Q15059 20-477): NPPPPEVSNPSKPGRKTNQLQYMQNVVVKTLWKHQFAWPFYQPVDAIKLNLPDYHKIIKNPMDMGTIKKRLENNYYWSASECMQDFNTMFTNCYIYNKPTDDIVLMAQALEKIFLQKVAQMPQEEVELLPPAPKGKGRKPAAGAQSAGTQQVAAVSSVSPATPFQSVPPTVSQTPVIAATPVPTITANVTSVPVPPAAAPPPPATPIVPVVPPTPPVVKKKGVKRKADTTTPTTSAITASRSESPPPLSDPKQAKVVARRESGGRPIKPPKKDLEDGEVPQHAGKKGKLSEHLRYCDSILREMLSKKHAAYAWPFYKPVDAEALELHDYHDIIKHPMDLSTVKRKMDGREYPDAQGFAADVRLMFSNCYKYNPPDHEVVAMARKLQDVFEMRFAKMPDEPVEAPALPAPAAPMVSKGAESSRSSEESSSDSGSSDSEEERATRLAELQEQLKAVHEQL

`COCn1cc(C)c2c1C(c1ccc(Cl)cc1)N(c1cc(C)c3nnn(C)c3n1)C2=O` (stereo not shown) [Example 2, 6-(4-chlorophenyl)-5-(3,7-dimethyl-3H-[1,2,3]triazolo[4,5-b]pyridin-5-yl)-1-(methoxymethyl)-3-methyl-5,6-dihydropyrrolo[3,4-b]pyrrol-4(1H)-one]: the IC50 in experiment [1] was 12 nM; in experiment [2] it was 23 nM; in experiment [3], 16 nM; in experiment [4], over 37000 nM. Moreover, the GI50 in experiment [5] is 7.66 nM; in experiment [6], 15.1 nM; in experiment [7], 62.1 nM. Also, the “MV-4-11 TGI” value in experiment [5] was 19.7 nM. The “THP-1 TGI” value in experiment [6] is 34.7 nM. In addition, in experiment [7], the “K-562 TGI” value is over 10000 nM.

`Cc1c[nH]c2c1C(=O)N(c1cc(C)c3nnc(C)n3c1)C2c1ccc(Cl)cc1` (stereo not shown) [Example 3, 6-(4-chlorophenyl)-5-(3,8-dimethyl-[1,2,4]triazolo[4,3-a]pyridin-6-yl)-3-methyl-5,6-dihydropyrrolo[3,4-b]pyrrol-4(1H)-one]: the IC50 in experiment [1] was 14 nM; in experiment [2], 24 nM; in experiment [3] it was 16 nM; in experiment [4], 8200 nM. Besides, the GI50 in experiment [5] stood at 7.68 nM; in experiment [6] it was 15.7 nM; in experiment [7], 55.4 nM. Also, the “MV-4-11 TGI” value in experiment [5] turned out to be 18.75 nM. Also, in experiment [6], the “THP-1 TGI” value was found to be 36.9 nM. Also, in experiment [7], the “K-562 TGI” value is over 10000 nM.

In the case of `Cc1cn(C2CN(C)C2)c2c1C(=O)N(c1cc(C)c3nnc(C)n3c1)C2c1ccc(Cl)cc1` (stereo not shown) [Example 5, 6-(4-chlorophenyl)-5-(3,8-dimethyl-[1,2,4]triazolo[4,3-a]pyridin-6-yl)-3-methyl-1-(1-methylazetidin-3-yl)-5,6-dihydropyrrolo[3,4-b]pyrrol-4(1H)-one], the IC50 in experiment [1] stood at 24 nM; in experiment [2], 45 nM; in experiment [3] it was 25 nM; in experiment [4], 6300 nM. For the same molecule, the GI50 in experiment [5] came to 6.3 nM; in experiment [6] it was 12.1 nM; in experiment [7], 47.8 nM. Besides, the “MV-4-11 TGI” value in experiment [5] came to 13.05 nM. For the same molecule, the “THP-1 TGI” value in experiment [6] worked out at 36.2 nM. Further, the “K-562 TGI” value in experiment [7] is over 10000 nM.

Regarding `Cc1cn(C2COC2)c2c1C(=O)N(c1cc(C)c3nnc(C)n3c1)C2c1ccc(Cl)cc1` (stereo not shown) [Example 6, 6-(4-chlorophenyl)-5-(3,8-dimethyl-[1,2,4]triazolo[4,3-a]pyridin-6-yl)-3-methyl-1-(oxetan-3-yl)-5,6-dihydropyrrolo[3,4-b]pyrrol-4(1H)-one], the IC50 in experiment [1] was 17 nM; in experiment [2] it was 40 nM; in experiment [3] it was 23 nM; in experiment [4], 6000 nM. Also, the GI50 was determined as 6.74 nM in experiment [5], 10.6 nM in experiment [6] and 50.5 nM in experiment [7]. In addition, the “MV-4-11 TGI” value in experiment [5] turned out to be 21.4 nM. In addition, in experiment [6], the “THP-1 TGI” value turned out to be 29.25 nM. Besides, in experiment [7], the “K-562 TGI” value is over 10000 nM.

As for `CC(=O)N1CC(n2cc(C)c3c2C(c2ccc(Cl)cc2)N(c2cc(C)c4nnc(C)n4c2)C3=O)C1` (stereo not shown) [Example 7, 1-(1-acetylazetidin-3-yl)-6-(4-chlorophenyl)-5-(3,8-dimethyl-[1,2,4]triazolo[4,3-a]pyridin-6-yl)-3-methyl-5,6-dihydropyrrolo[3,4-b]pyrrol-4(1H)-one], the IC50 in experiment [1] worked out at 17 nM; in experiment [2], 32 nM; in experiment [3], 16 nM; in experiment [4], 7600 nM. In addition, the GI50 in experiment [5] came to 50.2 nM; in experiment [6], 196 nM; in experiment [7] it was 2060 nM. In addition, the “MV-4-11 TGI” value in experiment [5] came out at 135.8 nM. Besides, in experiment [6], the “THP-1 TGI” value was found to be 449.5 nM. In addition, in experiment [7], the “K-562 TGI” value is over 10000 nM.

For the molecule `CCOC(=O)N1CC(n2cc(C)c3c2C(c2ccc(Cl)cc2)N(c2cc(C)c4nnc(C)n4c2)C3=O)C1` (stereo not shown) [Example 8, Ethyl 3-(6-(4-chlorophenyl)-5-(3,8-dimethyl-[1,2,4]triazolo[4,3-a]pyridin-6-yl)-3-methyl-4-oxo-5,6-dihydropyrrolo[3,4-b]pyrrol-1(4H)-yl)azetidine-1-carboxylate], the IC50 in experiment [1] was found to be 18 nM; in experiment [2], 41 nM; in experiment [3], 34 nM; in experiment [4] it was 5100 nM. In addition, the GI50 in experiment [5] is 25.2 nM; in experiment [6] it was 41.6 nM; in experiment [7], 132 nM. Moreover, the “MV-4-11 TGI” value in experiment [5] is 37.75 nM. The “THP-1 TGI” value in experiment [6] is 93.95 nM. Also, the “K-562 TGI” value in experiment [7] was over 10000 nM.

With `CNC(=O)n1cc(C)c2c1C(c1ccc(Cl)cc1)N(c1cc(C)c3nnc(C)n3c1)C2=O` (stereo not shown) [Example 9, 6-(4-chlorophenyl)-5-(3,8-dimethyl-[1,2,4]triazolo[4,3-a]pyridin-6-yl)-N,3-dimethyl-4-oxo-5,6-dihydropyrrolo[3,4-b]pyrrole-1(4H)-carboxamide], the concentration for half-maximal inhibition (IC50) in experiment [1] was 24 nM; in experiment [2] it was 28 nM; in experiment [3] it was 15 nM; in experiment [4], 6000 nM. For the same molecule, the 50% growth inhibitory concentration (GI50) in experiment [5] was 13 nM; in experiment [6] it was 17.1 nM; in experiment [7], 78.7 nM. In experiment [5], the “MV-4-11 TGI” value amounted to 26.75 nM. Besides, in experiment [6], the “THP-1 TGI” value was 43.3 nM. Also, the “K-562 TGI” value in experiment [7] was over 10000 nM.

For `Cc1cn(C(=O)N(C)C)c2c1C(=O)N(c1cc(C)c3nnc(C)n3c1)C2c1ccc(Cl)cc1` (stereo not shown) [Example 10, 6-(4-chlorophenyl)-5-(3,8-dimethyl-[1,2,4]triazolo[4,3-a]pyridin-6-yl)-N,N,3-trimethyl-4-oxo-5,6-dihydropyrrolo[3,4-b]pyrrole-1(4H)-carboxamide], the IC50 in experiment [1] was 33 nM; in experiment [2] it was 55 nM; in experiment [3], 34 nM; in experiment [4], 14500 nM. The GI50 in experiment [5] was 19.4 nM; in experiment [6] it was 29.8 nM; in experiment [7], 102 nM. Further, the “MV-4-11 TGI” value in experiment [5] stood at 36.25 nM. Further, in experiment [6], the “THP-1 TGI” value stood at 69.85 nM. Besides, the “K-562 TGI” value in experiment [7] was over 10000 nM.

On to `CCOC(=O)n1cc(C)c2c1C(c1ccc(Cl)cc1)N(c1cc(C)c3nnc(C)n3c1)C2=O` (stereo not shown) [Example 11, Ethyl 6-(4-chlorophenyl)-5-(3,8-dimethyl-[1,2,4]triazolo[4,3-a]pyridin-6-yl)-3-methyl-4-oxo-5,6-dihydropyrrolo[3,4-b]pyrrole-1(4H)-carboxylate], for which the IC50 is 38 nM in experiment [1], 39 nM in experiment [2], 50 nM in experiment [3] and 7300 nM in experiment [4]. Moreover, the figures for the GI50 in experiment [5], in experiment [6] and in experiment [7] were 18.7 nM, 26 nM and 113 nM, respectively. The “MV-4-11 TGI” value in experiment [5] came to 31.55 nM. Besides, in experiment [6], the “THP-1 TGI” value turned out to be 58.95 nM. In experiment [7], the “K-562 TGI” value was over 10000 nM.

As to `COCC(=O)N1CC(n2cc(C)c3c2C(c2ccc(Cl)cc2)N(c2cc(C)c4nnc(C)n4c2)C3=O)C1` (stereo not shown) [Example 12, 6-(4-chlorophenyl)-5-(3,8-dimethyl-[1,2,4]triazolo[4,3-a]pyridin-6-yl)-1-(1-(2-methoxyacetyl)azetidin-3-yl)-3-methyl-5,6-dihydropyrrolo[3,4-b]pyrrol-4(1H)-one], the IC50 in experiment [1] stood at 54 nM; in experiment [2], 80 nM; in experiment [3], 52 nM; in experiment [4], 23900 nM. The GI50 in experiment [5] worked out at 74.8 nM; in experiment [6], 219 nM; in experiment [7] it was 1050 nM. In experiment [5], the “MV-4-11 TGI” value worked out at 149 nM. Further, the “THP-1 TGI” value in experiment [6] came to 618.5 nM. Also, the “K-562 TGI” value in experiment [7] was over 10000 nM.

The IC50 is the point on the concentration scale where inhibition reaches its midpoint. For orientation: GI50 means the concentration at which growth is held to half of that of the control. A lower GI50 goes with greater sensitivity of the cells.
